Measurements taken from patent US20100055032A1, “METHODS FOR […] IMAGING USING NANOP[…] AGENTS” (NanoScan Imaging LLC, priority 2001, published 2010).
Read-outs that look alike come from different tables or passages of the source.

How the values were obtained:
[1] = for Percent Uptake (%) Aorta / Percent Uptake (%) Brain / Percent Uptake (%) Cardiac / Percent Uptake (%) Liver / Percent Uptake (%) Portal Vein / Percent Uptake (%) Posterior Vena Cava / Percent Uptake (%) Spleen: pre-treatment = 100.0
Description: Animals used in this study were six (6) male New Zealand white rabbits obtained from UCD. At the time of initiation, the rabbits were adult in age and weighed approximately 2.69±0.06 kg. The animals were housed separately in cages and fed a cholesterol enriched diet (CED) (TestDiet®—Richmond, Ind.) dry laboratory diet. Filtered tap water was provided ad labium. The animals were acclimated for a minimum of 7 days prior to the start of the study.
The study design comprised putting the rabbits on a CED for 5 weeks prior to the carotid overstretch procedure. At week 5, the carotid overstretch procedure was performed along with anticoagulant therapy (described below). The rabbits were then placed back on the CED with the anticoagulant therapy for an additional two (2) weeks. The rabbits were then anesthetized and Computer Tomography (CT) studies were performed. An iodinated nanoparticle, PH-50, having a mean diameter of 282 nm and a concentration of 15% (w/v) was evaluated in intact male rabbits with an average weight of 2.69±0.06 kg. Six (6) mL/kg of PH-50 was infused over ninety (90) minutes intravenously (IV) via an ear vein. The rabbits were then euthanized and necropsied after the 8 hour CT study.
The CED diet consisted of Purina® 5321 (a standard high-quality rabbit chow that is widely available) supplemented with 2% cholesterol, 5% coconut oil and 0.5% sodium cholate. The CED was formulated by and purchased from TestDiet® (Richmond, Ind.).
The carotid overstretch procedure was performed as follows: Rabbits were pretreated with an appropriate anticoagulant (heparin) prior to the procedure, and maintained on aspirin (20 mg/kg) for 14 days after the procedure. On the day of the procedure, the rabbits were boxed down and ventilated appropriately. The left carotid artery was exposed using standard techniques known in the art. A small puncture was made distal to the site to be overstretched, and a balloon catheter was placed in the artery. The vessel diameter was estimated from direct visualization. The balloon overstretch injury was performed using balloon diameters 30% greater than the baseline arterial diameter at the target areas three inflations of the balloon at approximately 6 atmospheric pressure for 30 seconds each, with a one-minute interval between inflations. Afterwards, the catheter was withdrawn and the rabbits allowed to recover for 14 days prior to the administration of PH-50. The animals were maintained on the CED and aspirin therapy during the 14-day recovery period. Fourteen (14) days following the overstretch procedure, the rabbits were anesthetized and maintained under anesthesia during PH-50 infusion and the CT scan procedures. […] In addition, whole body CT scans were made at contiguous 5 mm slices (at pretreatment, 4 hours and 8 hour studies).
The computer tomography (CT) imaging was performed with a GE® Hi-Speed Computed Tomography Scanner (Milwaukee, Wis.). The CT images were stored as DICOM3 images in GE® optical disks, CD-Rom. The parameter for CT imaging were 1 mm contiguous slices at 120 kvp, 1.5 seconds at 150 mA. CT scans of the entire rabbit were performed (from rostral nasal area to pelvis at specified times).

atherosclerotic plaques = experiment: Correlation of CT/Faxitron images with histopathology (Histopathology Correlation Scale); type: in vivo, New Zealand white rabbits; design: key to HCS score, renal images: 0=no correlation; 5=direct correlation
Description: The primary focus of this study was to study the potential uptake by atherosclerotic plaques of the compound PH-50. The spatial resolution of the CT scanner used in these experiments was approximately 0.15 mm and determination of plaque formation and PH-50 uptake were correlated with histopathology. The timetable for the schedule of CT studies for rabbit numbers 3081 and 3086 are outlined in Table 8.
All sets of data were carefully harvested, analyzed and then correlated with histopathology. Images were collected, labeled as either “carotid”, “Lung”, “Spleen”, “Liver”, “Cardiac”, “Renal” or “Faxitron images of the carotids,” and then graded according to a Histopathology Correlation Scale (HCS), where 0=no correlation and 5=direct correlation.

[2] = Rabbit No. 3081, 18 mL/90 min IV infusion (900 mg/kg), 255 min
[3] = Rabbit No. 3081, 18 mL/90 min IV infusion (900 mg/kg), 495 min
[4] = Rabbit No. 3086, 18 mL/90 min IV infusion (900 mg/kg), 250 min
[5] = Rabbit No. 3086, 18 mL/90 min IV infusion (900 mg/kg), 480 min

SMILES: CCOC(=O)CCCCCOC(=O)c1c(I)c(NC(C)=O)c(I)c(NC(C)=O)c1I [PH-50, 6-ethoxy-6-oxohexy-3,5-bis(acetylamino)-2,4,6-triiodobenzoate]
- Hounsfield Units (HU) Aorta [1, 2]: 56.5 HU
- Hounsfield Units (HU) Brain [1, 2]: 49.1 HU
- Hounsfield Units (HU) Cardiac [1, 2]: 136.2 HU
- Hounsfield Units (HU) Liver [1, 2]: 169.3 HU
- Hounsfield Units (HU) Portal Vein [1, 2]: 56.4 HU
- Hounsfield Units (HU) Posterior Vena Cava [1, 2]: 95.3 HU
- Hounsfield Units (HU) Spleen [1, 2]: 449.8 HU
- Hounsfield Units (HU) Aorta [1, 3]: 89.3 HU
- Hounsfield Units (HU) Brain [1, 3]: 36.8 HU
- Hounsfield Units (HU) Cardiac [1, 3]: 138.8 HU
- Hounsfield Units (HU) Liver [1, 3]: 110.6 HU
- Hounsfield Units (HU) Portal Vein [1, 3]: 55.4 HU
- Hounsfield Units (HU) Posterior Vena Cava [1, 3]: 87.8 HU
- Hounsfield Units (HU) Spleen [1, 3]: 351.2 HU
- Percent Uptake (%) Aorta ([1]; Rabbit No. 3081, 255 min): 84.0%
- Percent Uptake (%) Brain ([1]; Rabbit No. 3081, 255 min): 164.2%
- Percent Uptake (%) Cardiac ([1]; Rabbit No. 3081, 255 min): 383.3%
- Percent Uptake (%) Liver ([1]; Rabbit No. 3081, 255 min): 383.9%
- Percent Uptake (%) Portal Vein ([1]; Rabbit No. 3081, 255 min): 128.5%
- Percent Uptake (%) Posterior Vena Cava ([1]; Rabbit No. 3081, 255 min): 141.0%
- Percent Uptake (%) Spleen ([1]; Rabbit No. 3081, 255 min): 510.6%
- Percent Uptake (%) Aorta ([1]; Rabbit No. 3081, 495 min): 132.7%
- Percent Uptake (%) Brain ([1]; Rabbit No. 3081, 495 min): 123.1%
- Percent Uptake (%) Cardiac ([1]; Rabbit No. 3081, 495 min): 250.8%
- Percent Uptake (%) Liver ([1]; Rabbit No. 3081, 495 min): 250.8%
- Percent Uptake (%) Portal Vein ([1]; Rabbit No. 3081, 495 min): 126.2%
- Percent Uptake (%) Posterior Vena Cava ([1]; Rabbit No. 3081, 495 min): 129.9%
- Percent Uptake (%) Spleen ([1]; Rabbit No. 3081, 495 min): 398.6%
- Hounsfield Units (HU) Aorta [1, 4]: 64.0 HU
- Hounsfield Units (HU) Brain [1, 4]: 31.3 HU
- Hounsfield Units (HU) Cardiac [1, 4]: 220.2 HU
- Hounsfield Units (HU) Liver [1, 4]: 189.4 HU
- Hounsfield Units (HU) Portal Vein [1, 4]: 54.5 HU
- Hounsfield Units (HU) Posterior Vena Cava [1, 4]: 96.5 HU
- Hounsfield Units (HU) Spleen [1, 4]: 786.6 HU
- Hounsfield Units (HU) Aorta [1, 5]: 24.1 HU
- Hounsfield Units (HU) Brain [1, 5]: 34.7 HU
- Hounsfield Units (HU) Cardiac [1, 5]: 200.3 HU
- Hounsfield Units (HU) Liver [1, 5]: 98.2 HU
- Hounsfield Units (HU) Portal Vein [1, 5]: 28.1 HU
- Hounsfield Units (HU) Posterior Vena Cava [1, 5]: 58.6 HU
- Hounsfield Units (HU) Spleen [1, 5]: 228.5 HU
- Percent Uptake (%) Aorta ([1]; Rabbit No. 3086, 250 min): 186.6%
- Percent Uptake (%) Brain ([1]; Rabbit No. 3086, 250 min): 81.3%
- Percent Uptake (%) Cardiac ([1]; Rabbit No. 3086, 250 min): 320.1%
- Percent Uptake (%) Liver ([1]; Rabbit No. 3086, 250 min): 384.2%
- Percent Uptake (%) Portal Vein ([1]; Rabbit No. 3086, 250 min): 122.7%
- Percent Uptake (%) Posterior Vena Cava ([1]; Rabbit No. 3086, 250 min): 204.9%
- Percent Uptake (%) Spleen ([1]; Rabbit No. 3086, 250 min): 792.9%
- Percent Uptake (%) Aorta ([1]; Rabbit No. 3086, 480 min): 70.3%
- Percent Uptake (%) Brain ([1]; Rabbit No. 3086, 480 min): 90.1%
- Percent Uptake (%) Cardiac ([1]; Rabbit No. 3086, 480 min): 291.1%
- Percent Uptake (%) Liver ([1]; Rabbit No. 3086, 480 min): 199.2%
- Percent Uptake (%) Portal Vein ([1]; Rabbit No. 3086, 480 min): 63.3%
- Percent Uptake (%) Posterior Vena Cava ([1]; Rabbit No. 3086, 480 min): 124.4%
- Percent Uptake (%) Spleen ([1]; Rabbit No. 3086, 480 min): 230.3%
- adverse reactions during the infusion ([1]; anesthetized rabbits, 6 mL/kg IV over 90 min): No adverse reactions
- blood pressure or heart rate ([1]; anesthetized rabbits, during infusion of 6 mL/kg IV over 90 min): no increase
- uptake by atherosclerotic plaques (atherosclerotic plaques; CT with histopathology, cholesterol-fed rabbits): taken up by atherosclerotic plaques in the heart and lung
- HCS score, carotid images (atherosclerotic plaques; left carotid of rabbit no. 3086): 2
- HCS score, Faxitron images (atherosclerotic plaques; mid region of the left carotid artery of rabbit no. 3086): 3
- HCS score, cardiac images (atherosclerotic plaques; plaques in the coronary arteries and myocardium of rabbit no. 3086, 4 and 8 hours post-injection): 4
- HCS score, renal images (atherosclerotic plaques; renal artery of rabbit no. 3086, area not submitted for histopathology): 0
- HCS score, liver images (atherosclerotic plaques; small arterioles of the liver of rabbit no. 3086, 4 hours post-injection): 3
- HCS score, lung images (atherosclerotic plaques; small arterioles of the lung, 4 hours post-injection): 4
- HCS score, spleen images (atherosclerotic plaques; small arterioles of the spleen of rabbit no. 3086, 4 hours post-injection): 4
